In US20220257639A1, “TREATMENT OF PATIENTS UNDER ANTIPLATELET MEDICATION EXPERIENCING ACUTE BLEEDING COMPLICATIONS DURING/AFTER SURGERY” (priority 2019, published 2022):

Assays:
[1] = tested on: human platelets in plasma; test: Platelet aggregation in platelet-rich plasma (light transmission aggregometry); format: cell-based; details: 20 min, n=5, mean±S.E.M.
Description: With approval from the regional ethical board Örebro-Uppsala county (Dnr 2015/543) blood was obtained from healthy volunteers, who denied to have taken any medication two weeks prior to donation, by venipuncture and drawn into 10 ml syringes preloaded by the supplier with trisodium citrate solution (Sarstedt, Nümbrecht, Germany, Order number: 02.1067.001) The blood was and centrifuged at 220 g for 20 min. The PRP thus obtained was transferred into fresh 15 ml polypropylene tubes, and the remaining blood was centrifuged at 2200 g for 20 min to separate the PPP from remaining blood cells.
Measurements were performed at 37° C. using Chrono-Log lumi-aggregometer (Model 700, Chrono-log Corporation, Havertown, Pa., USA) with stirring at 900 rev./min using a final volume of 0.3 ml platelet suspension. Aggregation is expressed as percentage light transmission compared with PPP alone (=100%).
Platelets were preincubated with vehicle or AR-C66096 as indicated for 5 min followed by the stimulation with 1 μg/ml collagen, 10 μM SFLLRN, 30 μg/ml C34, 10 μg/ml fucoidan, or 30 μg/ml dextran sulfate (DxS) (FIG. 4A).
Platelets were preincubated with vehicle or ICI 192,506 as indicated for 5 min followed by the stimulation with 1 μg/ml collagen, 10 μM SFLLRN, 30 μg/ml C34, 10 μg/ml fucoidan, or 30 μg/ml dextran sulfate (DxS) (FIG. 4B).
Platelets were preincubated with vehicle or AR-C66096 and ICI 192,506 as indicated for 5 min followed by the stimulation with 1 μg/ml collagen, 10 μM SFLLRN, 30 μg/ml C34, 10 μg/ml fucoidan, or 30 μg/ml dextran sulfate (DxS) (FIG. 4C).

[2] = tested on: human platelets in plasma; test: as above; format: cell-based; details: in the presence of both TPα and P2Y12 antagonists (dual inhibition; DAPT), FIG. 3
[3] = tested on: washed (isolated) human platelets; details: from Kauskot et al. [4]; cited from earlier work
[4] = FIG. 4A, in the presence of P2Y12 receptor antagonist AR-C66096 (5 min preincubation), same agonist concentrations
[5] = FIG. 4A, vehicle preincubation (no antagonist), 1 μg/ml collagen, 10 μM SFLLRN, 30 μg/ml C34, 10 μg/ml fucoidan, 30 μg/ml DxS
[6] = FIG. 4B, in the presence of TPα receptor antagonist ICI 192,605 (5 min preincubation), same agonist concentrations
[7] = FIG. 4B, vehicle preincubation (no antagonist), same agonist concentrations
[8] = FIG. 4C, dual inhibition with AR-C66096 and ICI 192,605 (5 min preincubation), same agonist concentrations
[9] = FIG. 4C, vehicle preincubation (no antagonist), same agonist concentrations

Question: For Collagen, which “extent of platelet aggregation (percentage light transmission compared with PPP)” value [1, 4] is on record?
Answer: Its value is 23±4%.

Question: What about the “extent of platelet aggregation (percentage light transmission compared with PPP)” value [1, 5] of the same molecule?
Answer: Its value is 85±2%.

Question: What about the “extent of platelet aggregation (percentage light transmission compared with PPP)” value [1, 6] of the same molecule?
Answer: Its value is 21±4%.

Question: And the “extent of platelet aggregation (percentage light transmission compared with PPP)” value [1, 7]?
Answer: Its value is 90±3%.

Question: What about the “extent of platelet aggregation (percentage light transmission compared with PPP)” value [1, 8] of the same molecule?
Answer: Its value is 11±2%.

Question: And the “extent of platelet aggregation (percentage light transmission compared with PPP)” value [1, 9]?
Answer: Its value is 86±2%.

Question: What about the “course of platelet aggregation under dual inhibition (reversibility of first phase)” value [2] of the same molecule?
Answer: The value was “only the first but reversible phase”.

Question: For SFLLRN, which “extent of platelet aggregation (percentage light transmission compared with PPP)” value [1, 4] is on record?
Answer: The value was 5±1%.

Question: What about the “extent of platelet aggregation (percentage light transmission compared with PPP)” value [1, 5] of the same molecule?
Answer: The value was 91±3%.

Question: And the “extent of platelet aggregation (percentage light transmission compared with PPP)” value [1, 6]?
Answer: The value was 15±6%.

Question: What about the “extent of platelet aggregation (percentage light transmission compared with PPP)” value [1, 7] of the same molecule?
Answer: The value was 91±3%.

Question: And the “extent of platelet aggregation (percentage light transmission compared with PPP)” value [1, 8]?
Answer: Its value is 3±1%.

Question: What about the “extent of platelet aggregation (percentage light transmission compared with PPP)” value [1, 9] of the same molecule?
Answer: Its value is 93±2%.

Question: What about the “course of platelet aggregation under dual inhibition (reversibility of first phase)” value [2] of the same molecule?
Answer: The value was “only the first but reversible phase”.

Question: For dextran sulfate [DxS], which “extent of platelet aggregation (percentage light transmission compared with PPP)” value [1, 4] is on record?
Answer: The value was 23±6%.

Question: And the “extent of platelet aggregation (percentage light transmission compared with PPP)” value [1, 5]?
Answer: Its value is 84±5%.

Question: And the “extent of platelet aggregation (percentage light transmission compared with PPP)” value [1, 6]?
Answer: The value was 39±7%.

Question: And the “extent of platelet aggregation (percentage light transmission compared with PPP)” value [1, 7]?
Answer: The value was 88±6%.

Question: What about the “extent of platelet aggregation (percentage light transmission compared with PPP)” value [1, 8] of the same molecule?
Answer: The value was 37±6%.

Question: What about the “extent of platelet aggregation (percentage light transmission compared with PPP)” value [1, 9] of the same molecule?
Answer: Its value is 88±6%.

Question: What about the “course of platelet aggregation under dual inhibition (reversibility of first phase)” value [2] of the same molecule?
Answer: Its value is “irreversible and sustained”.

B1: PEAR1-EC: PEAR1 extracellular domain protein (Kauskot et al.) (protein, UniProt Q5VY43 21-755, looked up)
extracellular domain: LNPSDPNTCSFWESFTTTTKESHSRPFSLLPSEPCERPWEGPHTCPQPTVVYRTVYRQVVKTDHRQRLQCCHGFYESRGFCVPLCAQECVHGRCVAPNQCQCVPGWRGDDCSSECAPGMWGPQCDKPCSCGNNSSCDPKSGVCSCPSGLQPPNCLQPCTPGYYGPACQFRCQCHGAPCDPQTGACFCPAERTGPSCDVSCSQGTSGFFCPSTHSCQNGGVFQTPQGSCSCPPGWMGTICSLPCPEGFHGPNCSQECRCHNGGLCDRFTGQCRCAPGYTGDRCREECPVGRFGQDCAETCDCAPDARCFPANGACLCEHGFTGDRCTDRLCPDGFYGLSCQAPCTCDREHSLSCHPMNGECSCLPGWAGLHCNESCPQDTHGPGCQEHCLCLHGGVCQATSGLCQCAPGYTGPHCASLCPPDTYGVNCSARCSCENAIACSPIDGECVCKEGWQRGNCSVPCPPGTWGFSCNASCQCAHEAVCSPQTGACTCTPGWHGAHCQLPCPKGQFGEGCASRCDCDHSDGCDPVHGRCQCQAGWMGARCHLSCPEGLWGVNCSNTCTCKNGGTCLPENGNCVCAPGFRGPSCQRSCQPGRYGKRCVPCKCANHSFCHPSNGTCYCLAGWTGPDCSQPCPPGHWGENCAQTCQCHHGGTCHPQDGSCICPLGWTGHHCLEGCPLGTFGANCSQPCQCGPGEKCHPETGACVCPPGHSGAPCRIGIQEPFTVMPTTPVAYNSL
modifications: extracellular domain
Question: For B1, which “aggregation of washed human platelets” value [3] is on record?
Answer: The value was “induce aggregation of washed (isolated) human platelets in a concentration-dependent fashion”.
